How the values were obtained:
substance P receptor = target: T1, substance P receptor (Homo sapiens, UniProt P25103); assay: Radioligand receptor binding inhibitory activity using receptor from human lymphoblast cells (IM-9); conditions: 125I-BHSP radioligand, receptor from IM-9 cells, 25° C. for 30 minutes
T1 construct: The receptor was prepared from human lymphoblast cells (IM-9); endogenous in cells; host or cells: IM-9 human lymphoblast cells (membrane preparation)
Procedure: Radioligand receptor binding inhibitory activity Binding inhibitory activity using receptor from human lymphoblast cells (IM-9)
The receptor was prepared from human lymphoblast cells (IM-9). IM-9 cells (2×10^5 cells/ml) were inoculated and incubated for 3 days (one liter), which was then subjected to centrifuge for 5 minutes at 500×g to obtain cell pellets. […] The residue was washed twice with 30 ml of the above-mentioned buffer, which was then preserved frozen (−80° C.) as a specimen of the receptor.
The specimen was suspended in a reaction buffer (50 mM Tri-HCl buffer (pH 7.4), 0.02% bovine serum albumin, 1 mM phenylmethylsulfonyl fluoride, […], […] bacitracin, 3 mM manganese chloride) and 100 ul portion was the suspension was used in the reaction. […] The amount of nonspecific binding was determined by adding substance P at a final concentration of 2×10^−6M. After the reaction, using a cell harvester (290 PHD, Cambridge Technology, Inc, U.S.A.), rapid filtration was carried out through a glass filter (GF/B, Whatman, U.S.A.) to stop the reaction. After washing three times with 250 ul of 50 mM of Tris-HCl buffer (pH 7.4) containing 0.02% bovine serum albumin, the radioactivity remaining on the filter was determined with a gamma counter. Before use, the filter was immersed in 0.1% polyethyleneimine for 24 hours and air-dried.

T1 sequence (P25103 whole entry): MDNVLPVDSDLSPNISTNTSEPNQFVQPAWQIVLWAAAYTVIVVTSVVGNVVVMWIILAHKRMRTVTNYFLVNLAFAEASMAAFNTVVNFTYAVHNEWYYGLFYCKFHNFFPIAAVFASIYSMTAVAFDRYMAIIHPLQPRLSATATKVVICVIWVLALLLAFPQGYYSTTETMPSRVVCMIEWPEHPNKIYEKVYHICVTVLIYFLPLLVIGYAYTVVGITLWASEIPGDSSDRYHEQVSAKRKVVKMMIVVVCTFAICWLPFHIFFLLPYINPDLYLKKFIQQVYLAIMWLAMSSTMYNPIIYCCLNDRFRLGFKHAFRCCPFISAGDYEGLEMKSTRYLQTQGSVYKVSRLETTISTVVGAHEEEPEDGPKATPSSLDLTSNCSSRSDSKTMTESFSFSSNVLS

| Structure (SMILES) | melting point [°C] | IC50 (substance P receptor) [nM] |
| --- | --- | --- |
| CCC1CCn2c(c(-c3ccc(C)cc3)c3cccnc3c2=O)C(=O)N(Cc2cc(C(F)(F)F)cc(C(F)(F)F)c2)C1 (racemic) [Example 15, (±)-7-[3,5-bis(trifluoromethyl)benzyl]-9-ethyl-6,7,8,9,10,11-hexahydro-5-(4-methylphenyl)-6,13-dioxo-13H-[1,4]diazosino[2,1-g][1,7]napththylidine] | 258 to 260 | 1.1 |
| CCOc1cc(CN2C[C@H](C)CCn3c(c(-c4ccc(C)cc4)c4cccnc4c3=O)C2=O)cc(OCC)c1 [Example 3, (9R)-7-(3,5-diethoxybenzyl)-6,7,8,9,10,11-hexahydro-9-methyl-5-(4-methylphenyl)-6,13-dioxo-13H-[1,4]diazosino[2,1-g][1,7]napththylidine] | – | 0.69 |
| Cc1ccc(-c2c3n(c(=O)c4ncccc24)CC[C@@H](C)CN(Cc2cc(OC(C)C)cc(OC(C)C)c2)C3=O)cc1 [Example 4, (9R)-7-[3,5-di(1-methylethyloxy)benzyl)-6,7,8,9,10,11-hexahydro-9-methyl-5-(4-methylphenyl)-6,13-dioxo-13H-[1,4]diazosino[2,1-g[]1,7]napththylidine] | – | 0.17 |
| COc1cc(CN2C[C@H](C)CCn3c(c(-c4ccccc4)c4cccnc4c3=O)C2=O)cc(OC)c1 [Example 5, (9R)-7-(3,5-dimethoxybenzyl)-6,7,8,9,10,11-hexahydro-9-methyl-6,13-dioxo-5-phenyl-13H-[1,4]diazosino[2,1-g][1,7]napththylidine] | 199 to 201 | 0.48 |
| C[C@@H]1CCn2c(c(-c3ccc(Cl)cc3)c3cccnc3c2=O)C(=O)N(Cc2cc(C(F)(F)F)cc(C(F)(F)F)c2)C1 [Example 6, (9R)-7-[3,5-bis(trifluoromethyl)benzyl]-5-(4-chlorophenyl)-6,7,8,9,10,11-hexahydro-9-methyl-6,13-dioxo-13H-[1,4]diazosino[2,1-g][1,7]napththylidine] | – | 0.13 |
| C[C@@H]1CCn2c(c(-c3ccc(Cl)c(Cl)c3)c3cccnc3c2=O)C(=O)N(Cc2cc(C(F)(F)F)cc(C(F)(F)F)c2)C1 [Example 7] | – | 0.83 |
| COc1cc(CN2C[C@H](C)CCn3c(c(-c4ccc(Cl)c(Cl)c4)c4cccnc4c3=O)C2=O)cc(OC)c1 [Example 8, (9R)-7-(3,5-dimethoxybenzyl)-5-(3,4-dichlorophenyl)-6,7,8,9,10,11-hexahydro-9-methyl-6,13-dioxo-13H-[1,4]diazosino[2,1-g][1,7]napththylidine] | 207 to 208 | 0.05 |
| Cc1ccc(-c2c3n(c(=O)c4ncccc24)CC[C@@H](C)CN(Cc2cc(C)cc(C)c2)C3=O)cc1 [Example 9, (9R)-7-(3,5-dimethylbenzyl)-6,7,8,9,10,11-hexahydro-9-methyl-5-(4-methylphenyl)-6,13-dioxo-13H-[1,4]diazosino[2,1-g][1,7]napththylidine] | 200 to 202 | 0.86 |
| Cc1ccc(-c2c3n(c(=O)c4ncccc24)CC[C@@H](C)CN(Cc2cc(Cl)cc(Cl)c2)C3=O)cc1 [Example 10, (9R)-7-(3,5-dichlorobenzyl)-6,7,8,9,10,11-hexahydro-9-methyl-5-(4-methylphenyl)-6,13-dioxo-13H-[1,4]diazosino[2,1-g][1,7]napththylidine] | 139 to 141 | 1 |
| Cc1cc(C)cc(CN2C[C@H](C)CCn3c(c(-c4ccc(Cl)c(Cl)c4)c4cccnc4c3=O)C2=O)c1 [Example 11, (9R)-5-(3,4-dichlorophenyl)-7-(3,5-dimethylbenzyl)-6,7,8,9,10,11-hexahydro-9-methyl-6,13-dioxo-13H-[1,4]diazosino[2,1-g][1,7]napththylidine] | 137 to 139 | 0.81 |
| COc1cc(CN2C[C@H](C)CCn3c(c(-c4ccc(F)cc4)c4cccnc4c3=O)C2=O)cc(OC)c1 [Example 12, (9R)-7-(3,5-dimethoxybenzyl)-5-(4-fluorophenyl)-6,7,8,9,10,11-hexahydro-9-methyl-6,13-dioxo-13H-[1,4]diazosino[2,1-g][1,7]napththylidine] | 192 to 193 | 1.5 |
| COc1cc(CN2C[C@H](C)CCn3c(c(-c4ccc(Cl)cc4)c4cccnc4c3=O)C2=O)cc(OC)c1 [Example 13, (9R)-5-(4-chlorophenyl)-7-(3,5-dimethoxybenzyl)-6,7,8,9,10,11-hexahydro-9-methyl-6,13-dioxo-13H-[1,4]diazosino[2,1-g][1,7]napththylidine] | 229 to 230 | 1.1 |
| C[C@@H]1CCn2c(c(-c3ccc(F)cc3)c3cccnc3c2=O)C(=O)N(Cc2cc(C(F)(F)F)cc(C(F)(F)F)c2)C1 [Example 14, (9R)-7-[3,5-bis(trifluoromethyl)benzyl]-5-(4-fluorophenyl)-6,7,8,9,10,11-hexahydro-9-methyl-6,13-dioxo-13H-[1,4]diazosino[2,1-g][1,7]napththylidine] | – | 0.37 |

Results, then the compound that gave them:

| melting point [°C] | IC50 (substance P receptor) [nM] | Structure (SMILES) |
| --- | --- | --- |
| 257 to 258 | 0.88 | CC1CCn2c(c(-c3ccccc3)c3cccnc3c2=O)C(=O)N(Cc2cc(C(F)(F)F)cc(C(F)(F)F)c2)C1 (racemic) [Reference Example 69, (+/−)-7-[3,5-Bis(trifluoromethyl)benzyl]-6,7,8,9,10,11-hexahydro-9-methyl-6,13-dioxo-5-phenyl-13H-[1,4]diazocino[2,1-g][1,7]naphthyridine] |
| 282 to 283 | 0.1 | Cc1ccc(-c2c3n(c(=O)c4ncccc24)CC(O)CN(Cc2cc(C(F)(F)F)cc(C(F)(F)F)c2)C3=O)cc1 (racemic) [Reference Example 79, (+/−)-7-[3,5-Bis(trifluoromethyl)benzyl]-6,7,8,9,10,12-hexahydro-9-hydroxy-5-(4-methylphenyl)-6,12-dioxo[1,4]diazepino [2,1-g][1,7]naphthyridine] |
| – | 0.66 | Cc1ccc(-c2c3c(c(=O)n4c2C(=O)N(Cc2cc(C(F)(F)F)cc(C(F)(F)F)c2)CCCC4)CN(C)CC3)cc1 [Reference Example 64, 7-[3,5-Bis(trifluoromethyl)benzyl]-1,2,3,4,6,7,8,9,10,11-decahydro-2-methyl-5-(4-methylphenyl)-6,13-dioxo-13H-[1,4]diazocino[1,2-b][2,7]naphthyridine] |
| – | 1.6 | Cc1cnc2c(c1-c1ccccc1)C(=O)N(Cc1cc(C(F)(F)F)cc(C(F)(F)F)c1)CCCO2 [Reference Example 78] |
| – | 0.2 | CN1CCN(Cc2cc(-c3ccccc3)c3c(n2)OCCN(Cc2cc(C(F)(F)F)cc(C(F)(F)F)c2)C3=O)CC1 [Reference Example 101, 4-[3,5-Bis(trifluoromethyl)benzyl]-2,3,4,5-tetrahydro-8-(N-methylpiperazinomethyl)-5-oxo-6-phenylpyrido[3,2-f][1,4]oxazepine] |
| 139 to 140 | – | C[C@H]1COc2nccc(-c3ccccc3)c2C(=O)N(Cc2ccccc2)C1 [Reference Example 124, (R)-5-Benzyl-2,3,4,5-tetrahydro-3-methyl-6-oxo-7-phenyl-6H-pyrido[2,3-b][1,5]oxazocine] |
| 142 to 143 | – | C[C@@H]1COc2nccc(-c3ccccc3)c2C(=O)N(Cc2cc(C(F)(F)F)cc(C(F)(F)F)c2)C1 [Reference Example 125, (S)-5-[3,5-Bis(trifluoromethyl)benzyl]-2,3,4,5-tetrahydro-3-methyl-6-oxo-7-phenyl-6H-pyrido[2,3-b][1,5]oxazocine] |
| 142 to 143 | – | C[C@H]1COc2nccc(-c3ccccc3)c2C(=O)N(Cc2cc(C(F)(F)F)cc(C(F)(F)F)c2)C1 [Reference Example 126, (R)-5-[3,5-Bis(trifluoromethyl)benzyl]-2,3,4,5-tetrahydro-3-methyl-6-oxo-7-phenyl-6H-pyrido[2,3-b][1,5]oxazocine] |
| 203 to 204 | – | Cc1ccc(-c2ccnc3c2C(=O)N(Cc2ccccc2)CCO3)cc1 [Reference Example 133, 4-Benzyl-2,3,4,5-tetrahydro-5-oxo-6-(4-methylphenyl)pyrido[3,2-f][1,4]oxazepine] |
| 212 to 213 | – | Cc1ccc(-c2ccnc3c2C(=O)N(Cc2cc(C(F)(F)F)cc(C(F)(F)F)c2)CCO3)cc1 [Reference Example 134, 4-[3,5-Bis(trifluoromethyl)benzyl]2,3,4,5-tetrahydro-5-oxo-6-(4-methylphenyl)pyrido[3,2-f][1,4]oxazepine] |
| 148 to 149 | – | Cc1ccc(-c2ccnc3c2C(=O)N(Cc2ccccc2)C[C@H](C)CO3)cc1 [Reference Example 135, (S)-5-Benzyl-2,3,4,5-tetrahydro-3-methyl-7-(4-methylphenyl)-6-oxo-6H-pyrido[2,3-b][1,5]oxazocine] |
| 159 to 160 | – | Cc1ccc(-c2ccnc3c2C(=O)N(Cc2cc(C(F)(F)F)cc(C(F)(F)F)c2)C[C@H](C)CO3)cc1 [Reference Example 136, (S)-5-[3,5-Bis(trifluoromethyl)benzyl]2,3,4,5-tetrahydro-3-methyl-7-(4-methylphenyl)-6-oxo-6H-pyrido[2,3-b][1,5]oxazocine] |
